Source: patent US9301923B2, “Lipids, lipid compositions, and methods of using them” (NOVARTIS AG, priority 2009, dated 2016)
Several values for one entry are separate records, joined by “and”; a condition that tells them apart may be missing. Identical values can stand only once. Like-named read-outs stand apart in the source and are kept apart here.

Columns and labels:
[1] = pKa of the lipid by TNS fluorescence; type: physicochemical
Description: Unless explicitly indicated otherwise, all pKas referred to herein are measured in water at standard temperature and pressure. Also, unless otherwise indicated, all references to pKa are references to pKa measured using the following technique.
2 mM solution of lipid in ethanol are prepared by weighing the lipid and then dissolving in ethanol.
This is done with all eight buffers.
Priority: Column priority • Carriage Speed: Normal • Auto read: Off
The normalized fluorescence intensity vs. pH chart is then plotted in the Microsoft Excel software. The eight points are connected with a smooth line.
The pKa determined using this method is precise to about 0.2 pKa units.

[2] = Particle size and PDI by dynamic light scattering (Malvern Zetasizer); type: physicochemical
Description: Unless indicated otherwise, all sizes referred to herein are the average sizes (diameters) of the fully formed nanoparticle, as measured by dynamic light scattering on a Malvern Zetasizer. The nanoparticle sample is diluted in phosphate buffered saline (PBS) so that the count rate is approximately 200-400 kcts. The data is presented as a weighted average of the intensity measure.
The acronym PDI stands for polydispersity index. Unless indicated otherwise, all PDIs referred to herein are the PDI of the fully formed nanoparticle, as measured by dynamic light scattering on a Malvern Zetasizer. The nanoparticle sample is diluted in phosphate buffered saline (PBS) so that the count rate is approximately 200-400 kcts.

Factor VII = Factor VII activity assay, in vivo liver delivery of FVII siRNA LNP; design: species or system mouse; conditions: for FVII inhib %: ~48 h
Description: Female CD-1 mice are received from Charles River Labs and maintained on standard lab chow and water ad libitum. The animals weigh approximately 25 grams at time of dosing. Formulated siRNA is administered as a single dose at various dose levels intravenously via the lateral tail vein calculated on a (mg siRNAs/kg) basis according to individual animal weights (10 ml/kg injection volume).
Formulated siRNAs are made up of double stranded siRNA sequences specific to a target mRNA sequence, and are in the form of lipid nucleotid particles (LNPs) containing cationic lipids, stealth lipids and neutral lipids, as provided in the Examples below. The siRNA construct for use in targeting the liver is specific to Factor VII. […] FVII siRNA duplex sequence
Formulated Factor VII siRNA is administered as a single dose at various dose levels intravenously via the lateral tail vein calculated on a mg siRNAs/kg basis according to individual animal weights (10 ml/kg injection volume). Approximately 48 h after injection, the mice are euthanized by CO2 inhalation followed by exsanguinations through the vena cava. […] In some cases, small pieces (˜50 mg) of liver are collected and snap frozen in liquid nitrogen for follow up mRNA quantitation.
An assay standard curve is prepared using pooled plasma aliquots from the vehicle control animals.

[3] = lipid/DSPC/CHOL/AVANTI 880150P 50/28/18/4, N/P 3.43
[4] = lipid/no neutral lipid/CHOL/AVANTI 880150P 50/0/46/4, N/P 3.43
[5] = dose 3 mg/kg siRNA i.v., lipid/DSPC/CHOL/AVANTI 880150P 50/28/18/4, N/P 3.43
[6] = dose 3 mg/kg siRNA i.v., lipid/no neutral lipid/CHOL/AVANTI 880150P 50/0/46/4, N/P 3.43
[7] = dose 1 mg/kg siRNA i.v., lipid/no neutral lipid/CHOL/AVANTI 880150P 50/0/46/4, N/P 3.43

CCCCC/C=C\C/C=C\CCCCCCCCOCC(CN1CCCC1)OCCOCCO[C@H]1CC[C@@]2(C)C(=CC[C@H]3[C@@H]4CC[C@H]([C@H](C)CCCC(C)C)[C@@]4(C)CC[C@@H]32)C1 (some centres unmarked) [E0015]
pKa ([1]; pKa): 7.39
Final size (nm) [2, 3]: 164 nm
PDI [2, 3]: 0.06
Final size (nm) [2, 4]: 130 nm
PDI [2, 4]: 0.05
FVII inhib % (Factor VII; [5]): 30.7%
FVII inhib % (Factor VII; [6]): 77.1%

CCCCC/C=C\C/C=C\CCCCCCCCOCC(CN1CCC2(CC1)OCCO2)OCCOCCO[C@H]1CC[C@@]2(C)C(=CCC3C2CC[C@@]2(C)C3CC[C@@H]2[C@H](C)CCCC(C)C)C1 (some centres unmarked) [E0016]
pKa ([1]; pKa): 5.85
Final size (nm) [2, 3]: 97 nm
PDI [2, 3]: 0.175
Final size (nm) [2, 4]: 178 nm
PDI [2, 4]: 0.206
FVII inhib % (Factor VII; [5]): 88.8%
FVII inhib % (Factor VII; [6]): 59.9%

CCCCC/C=C\C/C=C\CCCCCCCCOCC(CN1CCCCCC1)OCCOCCO[C@H]1CC[C@@]2(C)C(=CC[C@H]3[C@@H]4CC[C@H]([C@H](C)CCCC(C)C)[C@@]4(C)CC[C@@H]32)C1 (some centres unmarked) [E0017]
pKa ([1]; pKa): 6.46
Final size (nm) [2, 3]: 106 nm
PDI [2, 3]: 0.17
Final size (nm) [2, 4]: 97 nm
PDI [2, 4]: 0.19
FVII inhib % (Factor VII; dose 1 mg/kg siRNA i.v., lipid/DSPC/CHOL/AVANTI 880150P 50/28/18/4, N/P 3.43): 53.8%
FVII inhib % (Factor VII; [5]): 98.3%
FVII inhib % (Factor VII; [6]): 96.5%

CCCCC/C=C\C/C=C\CCCCCCCCOCC(CN1CC=CCC1)OCCOCCO[C@H]1CC[C@@]2(C)C(=CCC3C2CC[C@@]2(C)C3CC[C@@H]2[C@H](C)CCCC(C)C)C1 (some centres unmarked) [E0018]
pKa ([1]; pKa): 5.9
Final size (nm) [2, 3]: 119 nm
PDI [2, 3]: 0.095
Final size (nm) [2, 4]: 103 nm and 140 nm
PDI [2, 4]: 0.113 and 0.13
FVII inhib % (Factor VII; [7]): 40.5%
FVII inhib % (Factor VII; [5]): 91.8%
FVII inhib % (Factor VII; [6]): 98%

CCCCC/C=C\C/C=C\CCCCCCCCOCC(CN1CCCC[C@@H]1C)OCCOCCO[C@H]1CC[C@@]2(C)C(=CCC3C2CC[C@@]2(C)C3CC[C@@H]2[C@H](C)CCCC(C)C)C1 (some centres unmarked) [E0019]
pKa ([1]; pKa): 6.75
Final size (nm) [2, 3]: 143 nm
PDI [2, 3]: 0.065
Final size (nm) [2, 4]: 90.5 nm and 180 nm
PDI [2, 4]: 0.164 and 0.19
FVII inhib % (Factor VII; [7]): 33.7%
FVII inhib % (Factor VII; [5]): 76.7%
FVII inhib % (Factor VII; [6]): 85.2%

CCCCC/C=C\C/C=C\CCCCCCCCOCC(CN1CC[C@@H]2CCCC[C@H]2C1)OCCOCCO[C@H]1CC[C@@]2(C)C(=CCC3C2CC[C@@]2(C)C3CC[C@@H]2[C@H](C)CCCC(C)C)C1 (some centres unmarked) [E0020]
pKa ([1]; pKa): 6.08
Final size (nm) [2, 3]: 83 nm
PDI [2, 3]: 0.138
Final size (nm) [2, 4]: 81 nm
PDI [2, 4]: 0.084
FVII inhib % (Factor VII; [5]): 62.4%
FVII inhib % (Factor VII; [6]): 51.4%

CCCCC/C=C\C/C=C\CCCCCCCCOCC(CN1CC[C@@H]2CCCC[C@@H]2C1)OCCOCCO[C@H]1CC[C@@]2(C)C(=CCC3C2CC[C@@]2(C)C3CC[C@@H]2[C@H](C)CCCC(C)C)C1 (some centres unmarked) [E0021]
pKa ([1]; pKa): 5.13
Final size (nm) [2, 3]: 85 nm
PDI [2, 3]: 0.22
Final size (nm) [2, 4]: 72 nm
PDI [2, 4]: 0.184
FVII inhib % (Factor VII; [5]): 24.5%
FVII inhib % (Factor VII; [6]): 52.8%

CCCCC/C=C\C/C=C\CCCCCCCCOCC(CN1CCCC(C)C1)OCCOCCO[C@H]1CC[C@@]2(C)C(=CCC3C2CC[C@@]2(C)C3CC[C@@H]2[C@H](C)CCCC(C)C)C1 (some centres unmarked) [E0023]
pKa ([1]; pKa): 5.85
Final size (nm) [2, 3]: 95 nm
PDI [2, 3]: 0.221
Final size (nm) [2, 4]: 99 nm
PDI [2, 4]: 0.122
FVII inhib % (Factor VII; [5]): 59.1%
FVII inhib % (Factor VII; [6]): 68%

CCCCC/C=C\C/C=C\CCCCCCCCOCC(CN1CCCCC1)OCCCCO[C@H]1CC[C@@]2(C)C(=CCC3C2CC[C@@]2(C)C3CC[C@@H]2[C@H](C)CCCC(C)C)C1 (some centres unmarked) [E0027]
pKa [1]: 5.71
pKa ([1]; pKa): 5.7
Final size (nm) [2, 3]: 146 nm
PDI [2, 3]: 0.311
Final size (nm) [2, 4]: 65 nm
PDI [2, 4]: 0.15
FVII inhib % (Factor VII; [5]): 36.3%
FVII inhib % (Factor VII; [6]): 30.3%
in vivo Factor VII inhibition (Factor VII; formulation containing the cationic lipid, RNAi construct specific to Factor VII, liver): 30.3%

CCCCC/C=C\C/C=C\CCCCCCCCOCC(CN1CCOCC1)OCCCCO[C@H]1CC[C@@]2(C)C(=CCC3C2CC[C@@]2(C)C3CC[C@@H]2[C@H](C)CCCC(C)C)C1 (some centres unmarked) [E0028]
pKa ([1]; pKa): 4.8
Final size (nm) [2, 3]: 129 nm
PDI [2, 3]: 0.216
Final size (nm) [2, 4]: 68 nm
PDI [2, 4]: 0.125
FVII inhib % (Factor VII; [5]): 12.5%
FVII inhib % (Factor VII; [6]): 38.7%

CCCCC/C=C\C/C=C\CCCCCCCCOCC(CN1Cc2ccccc2C1)OCCOCCO[C@H]1CC[C@@]2(C)C(=CCC3C2CC[C@@]2(C)C3CC[C@@H]2[C@H](C)CCCC(C)C)C1 (some centres unmarked) [E0029]
pKa ([1]; pKa): 4.95
Final size (nm) [2, 3]: 137 nm
PDI [2, 3]: 0.04
Final size (nm) [2, 4]: 113 nm
PDI [2, 4]: 0.08
FVII inhib % (Factor VII; [5]): 12.4%
FVII inhib % (Factor VII; [6]): −19.1%

CCCCC/C=C\C/C=C\CCCCCCCCOCC(CN1CCOCCOCCOCC1)OCCOCCO[C@H]1CC[C@@]2(C)C(=CC[C@H]3[C@@H]4CC[C@H]([C@H](C)CCCC(C)C)[C@@]4(C)CC[C@@H]32)C1 (some centres unmarked) [E0030]
pKa ([1]; pKa): 5.38
Final size (nm) [2, 4]: 155 nm
PDI [2, 4]: 0.08
FVII inhib % (Factor VII; [6]): 12.4%

CCCCC/C=C\C/C=C\CCCCCCCCOCC(CN1CCSCC1)OCCOCCO[C@H]1CC[C@@]2(C)C(=CCC3C2CC[C@@]2(C)C3CC[C@@H]2[C@H](C)CCCC(C)C)C1 (some centres unmarked) [E0031]
pKa ([1]; pKa): 4.8
Final size (nm) [2, 3]: 108 nm
PDI [2, 3]: 0.23
Final size (nm) [2, 4]: 65 nm
PDI [2, 4]: 0.11
FVII inhib % (Factor VII; [5]): 36.7%
FVII inhib % (Factor VII; [6]): 27.1%

CCCCC/C=C\C/C=C\CCCCCCCCOCC(CN1CC=CC1)OCCOCCO[C@H]1CC[C@@]2(C)C(=CCC3C2CC[C@@]2(C)C3CC[C@@H]2[C@H](C)CCCC(C)C)C1 (some centres unmarked) [E0032]
pKa ([1]; pKa): 6.8
Final size (nm) [2, 3]: 87 nm
PDI [2, 3]: 0.18
Final size (nm) [2, 4]: 63 nm
PDI [2, 4]: 0.21
FVII inhib % (Factor VII; [5]): 64.5%
FVII inhib % (Factor VII; [6]): 85.5%

CCCCC/C=C\C/C=C\CCCCCCCCOCC(CN1CCC(OC)C1)OCCCCO[C@H]1CC[C@@]2(C)C(=CCC3C2CC[C@@]2(C)C3CC[C@@H]2[C@H](C)CCCC(C)C)C1 (some centres unmarked) [E0035]
pKa ([1]; pKa): 5.93
Final size (nm) [2, 3]: 103 nm
PDI [2, 3]: 0.2
Final size (nm) [2, 4]: 79 nm
PDI [2, 4]: 0.21
FVII inhib % (Factor VII; [5]): 22%
FVII inhib % (Factor VII; [6]): 66.8%

CCCCC/C=C\C/C=C\CCCCCCCCOCC(CN1CCCCC1)OC(=O)CCC(=O)O[C@H]1CC[C@@]2(C)C(=CCC3C2CC[C@@]2(C)C3CC[C@@H]2[C@H](C)CCCC(C)C)C1 (some centres unmarked) [E0036]
pKa ([1]; pKa): 5.74
Final size (nm) [2, 3]: 122 nm
PDI [2, 3]: 0.12
Final size (nm) [2, 4]: 76 nm
PDI [2, 4]: 0.24
FVII inhib % (Factor VII; [5]): −47%
FVII inhib % (Factor VII; [6]): −23.1%

CCCCC/C=C\C/C=C\CCCCCCCCOCC(CN1CCC(N(C)C)C1)OCCOCCO[C@H]1CC[C@@]2(C)C(=CC[C@H]3[C@@H]4CC[C@H]([C@H](C)CCCC(C)C)[C@@]4(C)CC[C@@H]32)C1 (some centres unmarked) [E0039]
pKa ([1]; pKa): 5.88
Final size (nm) [2, 3]: 113 nm
PDI [2, 3]: 0.15
Final size (nm) [2, 4]: 94 nm
PDI [2, 4]: 0.06
FVII inhib % (Factor VII; [5]): −6.7%
FVII inhib % (Factor VII; [6]): −5.4%

CCCCC/C=C\C/C=C\CCCCCCCCOCC(CN1CC2CCCN(C(=O)OC(C)(C)C)C2C1)OCCOCCO[C@H]1CC[C@@]2(C)C(=CCC3C2CC[C@@]2(C)C3CC[C@@H]2[C@H](C)CCCC(C)C)C1 (some centres unmarked) [E0041]
pKa ([1]; pKa): 4.8
Final size (nm) [2, 3]: 95 nm
PDI [2, 3]: 0.37
Final size (nm) [2, 4]: 93 nm
PDI [2, 4]: 0.21
FVII inhib % (Factor VII; [5]): −7.4%
FVII inhib % (Factor VII; [6]): 17.6%
